Here are results for three compounds from patent EP4806443A1, “ANTICANCER AGENT KIT” (Nihon Trim Co., Ltd., priority 2023, dated 2025).

Common to all, as to assay type: cell-based, Human
Assay [1] concerns HeLa cells in which ATG7 (autophagy-related gene) was knocked out (ATG7 KO). Nature of the assay: Cell growth inhibitory effect (Cell Counting Kit-8), HeLa ATG7 KO. The note with it: 24 hours. On the procedure:
The results are shown in FIGS. 8 (ATG7 WT) and 9 (ATG7 KO).
FIGS. 20 and 21 show the results.
In FIGS. 20 and 21, HW represents DMEM (produced hydrogen water medium) containing produced hydrogen water with a dissolved hydrogen concentration of 0 ppm to 4 ppm, and HW + DOX represents the DMEM (produced hydrogen water medium) to which 0.5 µM doxorubicin was added.
The results are shown in FIGS. 26 (ATG7 WT) and 27 (ATG7 KO).
In general terms: Formazan colour is commonly taken as a measure of viable cells.

Assay [2] concerns HeLa cells expressing a GFP-LC3-RFP-LC3ΔG probe. The experiment in a line: Autophagic activity based on GFP/RFP ratio (flow cytometry), HeLa. How it is done:
Then, the cells were detached and suspended, and the fluorescence intensities of GFP and RFP were analyzed by flow cytometry. The autophagic activity was quantitatively analyzed by determining the GFP/RFP ratio.
A1-containing filtered-water medium) containing 200 nM Baf.
The GFP-LC3-RFP-LC3ΔG probe (or a GFP-LC3-RFP probe described later) is described in, for example, the following paper. The GFP-LC3-RFP-LC3ΔG probe (or GFP-LC3-RFP probe) is cleaved by ATG4, and the same number of GFP-LC3 and RFP-LC3ΔG (or RFP) are produced in the cytoplasm. GFP-LC3 is localized in the autophagosomes, and then quenched and degraded in the autolysosomes. RFP-LC3ΔG (or RFP) remains in the cytoplasm and serves as an internal control reflecting the amount of GFP-LC3. The GFP/RFP ratio is obtained by quantifying the cumulative amount of degradation of GFP-LC3 by autophagy. A decrease in the GFP/RFP ratio indicates autophagy activation. An increase in the GFP/RFP ratio indicates autophagy inhibition. […]
(§1) Then, the cells were detached and suspended in the same manner as described in the section (2-3), and the fluorescence intensities of GFP and RFP were analyzed by flow cytometry. The autophagic activity was quantitatively analyzed by determining the GFP/RFP ratio.
For orientation: In flow cytometry, cells or beads pass a laser one at a time.

In assay [3] the test system is HCT116 cells expressing the GFP-LC3-RFP probe. The experiment in a line: Autophagic activity based on GFP/RFP ratio (flow cytometry), HCT116. The conditions noted are these: fluorouracil 1 or 10 µM, 24 hours (FIG. 25). How it is done: as §1
In assay [4] the test system is HeLa cells in which ATG7 was knocked out (ATG7 KO). Nature of the assay: Apoptosis induction (Cell Death Detection […]), HeLa ATG7 KO. The note with it: doxorubicin 1 or 2 µM, 24 hours; ATG7 KO compared with ATG7 WT (FIG. 7).
Protocol: Apoptosis induction was assessed using Cell Death Detection [sequence] (Roche Diagnostics, Basel, Switzerland) according to the manual. HeLa cells (ATG7 WT) or HeLa cells in which ATG7 was knocked out (ATG7 KO) were seeded into a 12-well plate at 1.0 × 10^5 cells/well and cultured (precultured) in DMEM under the conditions of 37°C and 5% CO2 for 24 hours. After the preculture, the medium was exchanged with DMEM supplemented with an anticancer agent containing doxorubicin at a predetermined concentration (1 or 2 µM), and the cells were cultured for 24 hours. The cells were then lysed with a lysis buffer, and the lysate was added to each well of the ELISA plate, incubated with an immunological reagent buffer containing anti-histone biotin and anti-DNA POD for 2 hours, and washed with an incubation buffer. Then, the resultant was reacted with 100 µL of an ABTS substrate buffer, and the absorbance was measured at 405 nm and 490 nm.
Apoptosis induction was assessed using Cell Death Detection [sequence] (Roche Diagnostics, Basel, Switzerland) according to the manual. […] Then, the resultant was reacted with 100 µL of an ABTS substrate buffer, and the absorbance was measured at 405 nm and 490 nm.
A further assay has as its system Caco-2 cells. Nature of the assay: Cell growth inhibitory effect (Cell Counting Kit-8), Caco-2. The note with it: doxorubicin 1, 2, or 4 µM in serum-free medium (autophagy activating conditions), 24 hours (FIG. 12). On the procedure:
FIGS. 12 to 15 show the results.
In FIG. 12, DOX + serum free represents DMEM with no serum (serum-free medium) to which doxorubicin was added at a predetermined concentration (1, 2, or 4 µM), DOX represents serum-containing DMEM with doxorubicin added at a predetermined concentration, and DOX + Baf. represents a medium (Baf. A1-containing medium) containing 200 nM Bafilomycin A1 (Baf. A1) dissolved in serum-containing DMEM, to which doxorubicin was added at the predetermined concentration.
In FIG. 15, FW (Medium + Baf. A1) represents a medium (Baf. A1-containing filtered-water medium) containing 200 nM Baf.

In the case of `CC(=O)O[C@H]1C(=O)[C@@]2(C)[C@H]([C@H](OC(=O)c3ccccc3)[C@]3(O)C[C@H](OC(=O)[C@H](O)[C@@H](NC(=O)c4ccccc4)c4ccccc4)C(C)=C1C3(C)C)[C@]1(OC(C)=O)CO[C@@H]1C[C@@H]2O` [paclitaxel], the “anticancer effect (cell growth inhibitory effect)” value in assay [1] (paclitaxel 1, 10, or 50 nM, ATG7 KO compared with ATG7 WT (FIG. 24)) is “enhanced”. In addition, the GFP/RFP ratio entry in assay [2] (paclitaxel 1, 5, or 10 nM, 24 hours (FIG. 23)) is given as “decreased as the paclitaxel concentration increased”.
For `O=c1[nH]cc(F)c(=O)[nH]1` [fluorouracil], the GFP/RFP ratio result in assay [3] was “decreased as the fluorouracil concentration increased”.
With `COc1cccc2c1C(=O)c1c(O)c3c(c(O)c1C2=O)C[C@@](O)(C(=O)CO)C[C@@H]3O[C@H]1C[C@H](N)[C@H](O)[C@H](C)O1` [doxorubicin], the “cell growth inhibitory effect” value in assay [1] (doxorubicin 1, 2, or 4 µM, ATG7 KO compared with ATG7 WT (FIG. 6)) was “enhanced”. Also, the apoptosis induction entry in assay [4] is listed as “enhanced”. In assay [2] (doxorubicin 1, 2, or 4 µM, 4 hours, a decrease indicates autophagy activation (FIG. 5)), the GFP/RFP ratio result is listed as “decreased as the doxorubicin concentration increased”. Further, the “cell growth inhibitory effect of doxorubicin” value in the assay on Caco-2 cells was “rather reduced”.
